From BigSolDB 2.1

Question: With `Nc1ccc(Oc2ccc(N)cc2)cc1` as the molecule, how does the solubility (mole fraction) (in 2-ethoxyethanol, 283.15 K) read?
Answer: 0.0274

Question: And the solubility (mole fraction) (in 2-ethoxyethanol, 288.15 K)?
Answer: 0.0288

Question: What about the solubility (mole fraction) (in 2-ethoxyethanol, 293.15 K) of the same molecule?
Answer: 0.0306

Question: What about the solubility (mole fraction) (in 2-ethoxyethanol, 298.15 K) of the same molecule?
Answer: 0.0329

Question: And the solubility (mole fraction) (in 2-ethoxyethanol, 303.15 K)?
Answer: 0.0358

Question: And the solubility (mole fraction) (in 2-ethoxyethanol, 308.15 K)?
Answer: 0.0394

Question: What about the solubility (mole fraction) (in 2-ethoxyethanol, 313.15 K) of the same molecule?
Answer: 0.0436

Question: What about the solubility (mole fraction) (in 2-ethoxyethanol, 318.15 K) of the same molecule?
Answer: 0.0486

Question: What about the solubility (mole fraction) (in 2-ethoxyethanol, 323.15 K) of the same molecule?
Answer: 0.0544

Question: And the solubility (mole fraction) (in DMAc, 283.15 K)?
Answer: 0.133

Question: What about the solubility (mole fraction) (in DMAc, 288.15 K) of the same molecule?
Answer: 0.136

Question: What about the solubility (mole fraction) (in DMAc, 293.15 K) of the same molecule?
Answer: 0.139

Question: And the solubility (mole fraction) (in DMAc, 298.15 K)?
Answer: 0.143

Question: What about the solubility (mole fraction) (in DMAc, 303.15 K) of the same molecule?
Answer: 0.147

Question: And the solubility (mole fraction) (in DMAc, 308.15 K)?
Answer: 0.152

Question: What about the solubility (mole fraction) (in DMAc, 313.15 K) of the same molecule?
Answer: 0.156

Question: And the solubility (mole fraction) (in DMAc, 318.15 K)?
Answer: 0.162

Question: What about the solubility (mole fraction) (in DMAc, 323.15 K) of the same molecule?
Answer: 0.168

Question: And the solubility (mole fraction) (in DMF, 283.15 K)?
Answer: 0.104

Question: And the solubility (mole fraction) (in DMF, 288.15 K)?
Answer: 0.107

Question: What about the solubility (mole fraction) (in DMF, 293.15 K) of the same molecule?
Answer: 0.11

Question: What about the solubility (mole fraction) (in DMF, 298.15 K) of the same molecule?
Answer: 0.115

Question: And the solubility (mole fraction) (in DMF, 303.15 K)?
Answer: 0.12

Question: And the solubility (mole fraction) (in DMF, 308.15 K)?
Answer: 0.126

Question: What about the solubility (mole fraction) (in DMF, 313.15 K) of the same molecule?
Answer: 0.132

Question: And the solubility (mole fraction) (in DMF, 318.15 K)?
Answer: 0.138

Question: What about the solubility (mole fraction) (in DMF, 323.15 K) of the same molecule?
Answer: 0.145

Question: What about the solubility (mole fraction) (in DMSO, 298.15 K) of the same molecule?
Answer: 0.153

Question: What about the solubility (mole fraction) (in DMSO, 303.15 K) of the same molecule?
Answer: 0.159

Question: What about the solubility (mole fraction) (in DMSO, 308.15 K) of the same molecule?
Answer: 0.165

Question: What about the solubility (mole fraction) (in DMSO, 313.15 K) of the same molecule?
Answer: 0.172

Question: What about the solubility (mole fraction) (in DMSO, 318.15 K) of the same molecule?
Answer: 0.179

Question: And the solubility (mole fraction) (in DMSO, 323.15 K)?
Answer: 0.187

Question: And the solubility (mole fraction) (in ethanol, 283.15 K)?
Answer: 0.000434

Question: What about the solubility (mole fraction) (in ethanol, 288.15 K) of the same molecule?
Answer: 0.000549

Question: And the solubility (mole fraction) (in ethanol, 293.15 K)?
Answer: 0.0007

Question: And the solubility (mole fraction) (in ethanol, 298.15 K)?
Answer: 0.00089

Question: What about the solubility (mole fraction) (in ethanol, 303.15 K) of the same molecule?
Answer: 0.00113

Question: What about the solubility (mole fraction) (in ethanol, 308.15 K) of the same molecule?
Answer: 0.00143

Question: What about the solubility (mole fraction) (in ethanol, 313.15 K) of the same molecule?
Answer: 0.00176

Question: What about the solubility (mole fraction) (in ethanol, 318.15 K) of the same molecule?
Answer: 0.00217

Question: What about the solubility (mole fraction) (in ethanol, 323.15 K) of the same molecule?
Answer: 0.0027

Question: And the solubility (mole fraction) (in methanol, 283.15 K)?
Answer: 0.00114

Question: What about the solubility (mole fraction) (in methanol, 288.15 K) of the same molecule?
Answer: 0.00132

Question: And the solubility (mole fraction) (in methanol, 293.15 K)?
Answer: 0.00153

Question: What about the solubility (mole fraction) (in methanol, 298.15 K) of the same molecule?
Answer: 0.00178

Question: And the solubility (mole fraction) (in methanol, 303.15 K)?
Answer: 0.00208

Question: And the solubility (mole fraction) (in methanol, 308.15 K)?
Answer: 0.00246

Question: And the solubility (mole fraction) (in methanol, 313.15 K)?
Answer: 0.00293

Question: What about the solubility (mole fraction) (in methanol, 318.15 K) of the same molecule?
Answer: 0.00349

Question: And the solubility (mole fraction) (in methanol, 323.15 K)?
Answer: 0.00416
